What all share (experiment): Bliss excess, mean over the matrix (fraction); higher = more synergy
The test system of experiment [1] is RCM-1 (Colorectal Carcinoma). The method in brief:
(§1)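 Cell lines in DMEM/F12 or RPMI with 10% FBS were plated in 1536-well plates, held 24 hours at 37°C, 5% CO2, then given two-drug dose matrices for 72 hours (DMSO typically 0.2%). Viability was read by CellTiter-Glo 2.0 luminescence and scaled as inhibition from 0 (vehicle wells) to 1 (blank wells). Combination Emax is the second-highest inhibition in the matrix; Bliss excess is observed combination effect minus expected EA + EB − EA·EB, EA and EB being single-agent effects.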

In experiment [2] the test system is OVMIU (Ovarian Carcinoma). The method in brief:
as §1

In experiment [3] the test system is SK-PN-DW (Other Solid Carcinomas). Summed up:
as §1

Experiment [4] relates to PC-3_[JPC-3] (Lung Adenocarcinoma). The method in brief: as §1
A further experiment relates to WM278 (Melanoma). Summed up:
as §1

The subject of experiment [5] is LXF-289 (Lung Adenocarcinoma). The method in brief: as §1
A further experiment concerns IST-MES1 (Mesothelioma). Summed up: as §1
The subject of experiment [6] is HCT-15 (Colorectal Carcinoma). The method in brief:
as §1

The subject of experiment [7] is 23132-87 (Gastric Carcinoma). The method in brief:
as §1

For experiment [8], the system named is RERF-GC-1B (Gastric Carcinoma). The method in brief:
as §1

Experiment [9] concerns HSC-39 (Gastric Carcinoma). The method in brief: as §1
Experiment [10] has as its system SU-DHL-10 (B-Cell Non-Hodgkin's Lymphoma). The method in brief: as §1
Experiment [11] deals with NCI-H23 (Lung Adenocarcinoma). The method in brief: as §1
Experiment [12] has as its system NCI-H2342 (Lung Adenocarcinoma). The method in brief:
as §1

The test system of another experiment is SF268 (Low Grade Glioma). Summed up: as §1
For experiment [13], the system named is L-1236 (Hodgkin's Lymphoma). The method in brief:
as §1

The next experiment deals with SF539 (Glioblastoma). The method in brief: as §1
The subject of the next experiment is GB-1 (Glioblastoma). The method in brief:
as §1

A further experiment deals with WM793B (Melanoma). The method in brief:
as §1

A further experiment relates to A2058 (Melanoma). The method in brief: as §1

For the compound `Cn1cnc2c(F)c(Nc3ccc(Br)cc3Cl)c(C(=O)NOCCO)cc21` [Selumetinib] + C=CCn1c(=O)c2cnc(Nc3ccc(N4CCN(C)CC4)cc3)nc2n1-c1cccc(C(C)(C)O)n1 [AZD1775] (first compound max 10 µM, partner max 1 µM), the Bliss excess in experiment [1] was -0.0359; in experiment [2], -0.0888; in [3], 0.0095; in experiment [4], -0.0332; with WM278 (Melanoma), -0.0183; in experiment [5], -0.0547. The Bliss excess in the experiment with IST-MES1 (Mesothelioma) was -0.0955; in [6], -0.0198; in [7] it was -0.0804; in experiment [8], 0.025; in experiment [9] it was -0.0725; in experiment [10], 0.0359. The Bliss excess in [11] was 0.0223; in [12], -0.0366; in the experiment on SF268 (Low Grade Glioma), -0.125; in experiment [13], -0.0131; in the experiment with SF539 (Glioblastoma), -0.025; in the experiment on GB-1 (Glioblastoma) it was -0.0522. Also, the Bliss excess was 0.004 in the experiment on WM793B (Melanoma) and -0.029 with A2058 (Melanoma).

As for `C=CCn1c(=O)c2cnc(Nc3ccc(N4CCN(C)CC4)cc3)nc2n1-c1cccc(C(C)(C)O)n1` [AZD1775] + O=C(c1cc(Cc2n[nH]c(=O)c3ccccc23)ccc1F)N1CCN(C(=O)C2CC2)CC1 [Olaparib] (first compound max 1 µM, partner max 10 µM), the Bliss excess in experiment [1] was -0.0861; in [2] it was -0.0135; in experiment [3], -0.0694; in [4], -0.0515; in the experiment on WM278 (Melanoma), -0.0312; in experiment [5], -0.0247. The Bliss excess in the experiment on IST-MES1 (Mesothelioma) was -0.0409; in experiment [6], -0.0674; in [7], -0.0282; in experiment [8], -0.0124; in experiment [9], 0.0277; in experiment [10], -0.0229. Further, the Bliss excess in experiment [11] is -0.035; in experiment [12] it was -0.0372; in the experiment on SF268 (Low Grade Glioma), -0.0312; in [13] it was -0.0441; in the experiment on SF539 (Glioblastoma), 0.0258; in the experiment on GB-1 (Glioblastoma), -0.0537. For the same compound, the Bliss excess was -0.0236 with WM793B (Melanoma) and -0.0049 in the experiment on A2058 (Melanoma).

Consider `COc1nnc2ccc(N3CCC(c4ccc(OCCN5CCN(C)C(=O)[C@H]5C)cc4)CC3)nn12` [AZD5153] + C[C@@H]1COCCN1C2=NC(=NC(=C2)C3(CC3)[S@](=N)(=O)C)C4=C5C=CNC5=NC=C4 [AZD6738] (first compound max 1 µM, 7x7, partner max 10 µM), for which the Bliss excess is -0.115 in experiment [1]; -0.0208 in [2]; -0.0638 in experiment [3]; 0.0651 in experiment [4]; 0.0507 in the experiment on WM278 (Melanoma); 0.0681 in [5]. The Bliss excess in the experiment with IST-MES1 (Mesothelioma) was -0.0183; in experiment [6], 0.0267; in [7], 0.0394; in [8], 0.0429; in experiment [9], -0.0055; in experiment [10], -0.038. In addition, the Bliss excess is -0.0105 in experiment [11]; 0.0133 in experiment [12]; 0.0311 with SF268 (Low Grade Glioma); -0.0093 in [13]; 0.0418 in the experiment on SF539 (Glioblastoma); 0.0446 in the experiment on GB-1 (Glioblastoma). Moreover, the values for the Bliss excess in the experiment with WM793B (Melanoma) and in the experiment on A2058 (Melanoma) were -0.0158 and 0.0671, respectively.

For the compound `NC1(C(=O)N[C@@H](CCO)c2ccc(Cl)cc2)CCN(c2ncnc3[nH]ccc23)CC1` [Capivasertib] + CC(=O)c1c(C)c2cnc(Nc3ccc(N4CCNCC4)cn3)nc2n(C2CCCC2)c1=O [Palbociclib] (first compound max 10 µM, 7x7, partner max 10 µM), the Bliss excess in experiment [1] was -0.0058; in experiment [2] it was -0.0168; in [3], -0.0603; in experiment [4] it was 0.002; in the experiment on WM278 (Melanoma), -0.0217; in experiment [5], 0.0199. Further, the Bliss excess is -0.0632 in the experiment with IST-MES1 (Mesothelioma); 0.0152 in experiment [6]; -0.0183 in experiment [7]; -0.0203 in [8]; 0.0906 in experiment [9]; 0.0478 in experiment [10]. The Bliss excess in experiment [11] was 0.008; in experiment [12] it was 0.0214; in the experiment on SF268 (Low Grade Glioma), -0.055; in experiment [13] it was -0.0829; with SF539 (Glioblastoma) it was -0.0486; with GB-1 (Glioblastoma), -0.0497. The Bliss excess is -0.0375 in the experiment with WM793B (Melanoma) and -0.0001 in the experiment on A2058 (Melanoma).

For `COc1cccc(OCCCN)c1-c1cc(Nc2cnc(C#N)cn2)n[nH]1` [Prexasertib] + CN(C)CCCOc1ccc(-c2ccc3ncc4c(c3c2)n(C2CCOCC2)c(=O)n4C)cn1 [AZD0156] (first compound max 1 µM, 7x7, partner max 1 µM), the Bliss excess in [1] is -0.0358; in [2] it was -0.0012; in experiment [3] it was -0.0141; in [4], -0.0526; in the experiment on WM278 (Melanoma), 0.0128; in [5] it was 0.0113. For the same compound, the Bliss excess is -0.0211 with IST-MES1 (Mesothelioma); 0.0607 in experiment [6]; -0.0009 in experiment [7]; 0.0049 in experiment [8]; -0.0196 in [9]; -0.049 in experiment [10]. Further, the Bliss excess was -0.0245 in [11]; -0.0272 in [12]; 0.0592 with SF268 (Low Grade Glioma); -0.0649 in experiment [13]; -0.0339 in the experiment on SF539 (Glioblastoma); -0.0079 with GB-1 (Glioblastoma). Further, the Bliss excess with WM793B (Melanoma) is -0.0265; in the experiment with A2058 (Melanoma), 0.007.

Consider `CCN(CCO)CCCOc1ccc2c(Nc3cc(CC(=O)Nc4cccc(F)c4)[nH]n3)ncnc2c1` [AZD2811] + O=C(c1cc(Cc2n[nH]c(=O)c3ccccc23)ccc1F)N1CCN(C(=O)C2CC2)CC1 [Olaparib] (first compound max 1 µM, 7x7, partner max 10 µM), for which the Bliss excess in [1] is -0.04; in experiment [2], -0.0509; in experiment [3], -0.0482; in experiment [4], -0.0067; with WM278 (Melanoma), -0.0107; in experiment [5], 0.0677. Besides, the Bliss excess in the experiment with IST-MES1 (Mesothelioma) is -0.0102; in [6] it was -0.0009; in experiment [7] it was 0.0143; in experiment [8], -0.0572; in [9], 0.0203; in experiment [10], -0.187. Further, the Bliss excess in [11] is 0.0076; in experiment [12], -0.02; with SF268 (Low Grade Glioma), 0.0105; in experiment [13], -0.0232; in the experiment on SF539 (Glioblastoma) it was 0.0434; with GB-1 (Glioblastoma), -0.0218. The Bliss excess with WM793B (Melanoma) was -0.015; with A2058 (Melanoma) it was 0.0093.

In the case of `CC1(C)CCC(CN2CCN(c3ccc(C(=O)NS(=O)(=O)c4ccc(NCC5CCOCC5)c([N+](=O)[O-])c4)c(Oc4cnc5[nH]ccc5c4)c3)CC2)=C(c2ccc(Cl)cc2)C1` [Venetoclax] + C[C@@H](Nc1cc(F)cc(F)c1)c1cc(C(=O)N(C)C)cc2c(=O)cc(N3CCOCC3)oc12 [AZD8186] (first compound max 1 µM, 7x7, partner max 3 µM), the Bliss excess in experiment [1] is -0.0495; in [2], -0.129; in experiment [3], -0.0038; in experiment [4] it was -0.0326; in the experiment with WM278 (Melanoma), -0.0199; in [5] it was -0.0008. In addition, the Bliss excess was -0.0423 in the experiment on IST-MES1 (Mesothelioma); -0.0184 in experiment [6]; -0.036 in experiment [7]; -0.028 in experiment [8]; -0.0503 in experiment [9]; 0.0052 in experiment [10]. The Bliss excess in experiment [11] was 0.007; in experiment [12], -0.0643; in the experiment on SF268 (Low Grade Glioma), -0.0353; in experiment [13], -0.0261; with SF539 (Glioblastoma) it was -0.0062; in the experiment with GB-1 (Glioblastoma) it was -0.0076. For the same compound, the Bliss excess with WM793B (Melanoma) is -0.016; with A2058 (Melanoma), -0.0031.

For the origin of these results see the supplement of paper PMC11061612.
